Test results: patent publication US9663508B2, “Biaryl acyl-sulfonamide compounds as sodium channel inhibitors” (AMGEN INC., priority 2013, dated 2017)

Target: human Nav1.7 (Homo sapiens (Human), UniProt Q15858)
Assay: Nav 1.7 in vitro PatchXpress (PX) assay
Type: cell-based
Details: not given

Chain of human Nav1.7 (Q15858 whole entry): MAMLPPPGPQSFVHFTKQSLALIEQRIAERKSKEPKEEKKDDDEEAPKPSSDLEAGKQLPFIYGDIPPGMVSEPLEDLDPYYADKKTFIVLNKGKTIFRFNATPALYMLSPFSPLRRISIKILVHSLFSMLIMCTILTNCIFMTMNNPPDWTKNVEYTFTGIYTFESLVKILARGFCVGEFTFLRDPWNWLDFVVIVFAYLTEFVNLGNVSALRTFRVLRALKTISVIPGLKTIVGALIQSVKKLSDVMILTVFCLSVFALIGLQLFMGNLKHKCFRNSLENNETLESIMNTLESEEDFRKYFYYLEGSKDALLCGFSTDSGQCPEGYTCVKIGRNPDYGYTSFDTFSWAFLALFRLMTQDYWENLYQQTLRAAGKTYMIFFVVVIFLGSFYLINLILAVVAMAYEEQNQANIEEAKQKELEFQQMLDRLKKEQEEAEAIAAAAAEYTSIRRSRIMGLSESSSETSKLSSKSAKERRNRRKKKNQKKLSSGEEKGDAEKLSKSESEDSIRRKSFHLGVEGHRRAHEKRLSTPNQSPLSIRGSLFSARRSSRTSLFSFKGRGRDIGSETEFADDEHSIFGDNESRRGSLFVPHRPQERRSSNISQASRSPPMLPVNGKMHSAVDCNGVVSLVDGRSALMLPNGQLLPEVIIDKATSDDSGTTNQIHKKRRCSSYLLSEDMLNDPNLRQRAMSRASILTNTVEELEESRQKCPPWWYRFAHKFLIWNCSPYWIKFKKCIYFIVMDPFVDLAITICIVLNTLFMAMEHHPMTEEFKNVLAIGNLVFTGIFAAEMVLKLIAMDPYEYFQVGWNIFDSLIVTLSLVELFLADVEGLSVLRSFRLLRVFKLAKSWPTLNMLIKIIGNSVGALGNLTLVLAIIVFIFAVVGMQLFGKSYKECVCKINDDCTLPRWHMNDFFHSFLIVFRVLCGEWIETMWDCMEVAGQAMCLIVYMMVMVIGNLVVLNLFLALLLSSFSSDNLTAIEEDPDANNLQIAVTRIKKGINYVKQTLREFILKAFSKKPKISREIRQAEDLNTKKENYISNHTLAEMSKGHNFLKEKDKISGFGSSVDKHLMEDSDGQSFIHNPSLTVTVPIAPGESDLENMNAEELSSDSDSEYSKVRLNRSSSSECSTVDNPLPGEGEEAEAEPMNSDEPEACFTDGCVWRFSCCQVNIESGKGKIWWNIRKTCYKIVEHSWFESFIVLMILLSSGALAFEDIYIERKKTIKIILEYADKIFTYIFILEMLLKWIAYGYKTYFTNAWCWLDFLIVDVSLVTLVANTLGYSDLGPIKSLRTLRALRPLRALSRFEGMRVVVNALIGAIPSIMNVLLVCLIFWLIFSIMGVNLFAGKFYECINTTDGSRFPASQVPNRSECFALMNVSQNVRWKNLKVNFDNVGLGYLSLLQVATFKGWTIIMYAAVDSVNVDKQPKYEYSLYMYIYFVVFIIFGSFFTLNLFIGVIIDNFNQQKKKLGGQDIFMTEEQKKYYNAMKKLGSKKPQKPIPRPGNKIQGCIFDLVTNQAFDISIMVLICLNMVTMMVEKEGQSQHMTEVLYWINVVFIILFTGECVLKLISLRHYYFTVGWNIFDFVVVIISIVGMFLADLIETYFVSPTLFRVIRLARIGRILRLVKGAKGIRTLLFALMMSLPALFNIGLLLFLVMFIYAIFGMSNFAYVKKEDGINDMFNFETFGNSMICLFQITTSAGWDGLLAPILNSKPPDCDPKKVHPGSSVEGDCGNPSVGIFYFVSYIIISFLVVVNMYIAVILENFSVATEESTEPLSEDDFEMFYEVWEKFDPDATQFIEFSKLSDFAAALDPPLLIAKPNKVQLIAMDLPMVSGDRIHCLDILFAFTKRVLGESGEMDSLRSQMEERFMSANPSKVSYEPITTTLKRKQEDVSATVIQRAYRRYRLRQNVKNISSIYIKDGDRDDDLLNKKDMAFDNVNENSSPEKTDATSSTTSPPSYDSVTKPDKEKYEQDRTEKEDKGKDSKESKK

IC50 | SMILES
57.6 nM | CS(=O)(=O)NC(=O)c1cc(F)c(-c2cnc(Oc3c(Cl)cc(F)cc3Cl)c(Cl)c2)cc1F [Example 572, 4-(5-chloro-6-(2,6-dichloro-4-fluorophenoxy)-3-pyridinyl)-2,5-difluoro-N-(methylsulfonyl)benzamide]
109 nM | Cc1cc(C(=O)NS(C)(=O)=O)c(F)cc1-c1cnc(Oc2cccc(F)c2F)c(Cl)c1 [Example 604, 4-(5-chloro-6-(2,3-difluorophenoxy)-3-pyridinyl)-2-fluoro-5-methyl-N-(methylsulfonyl)benzamide]
80 nM | COc1cc(C(=O)NS(C)(=O)=O)ccc1-c1cnc(Oc2cccc(F)c2F)c(Cl)c1 [Example 402, 4-(5-chloro-6-(2,3-difluorophenoxy)-3-pyridinyl)-3-methoxy-N-(methylsulfonyl)benzamide]
80 nM | C[C@H](Oc1ncc(-c2ccc(C(=O)NS(C)(=O)=O)cc2OC(F)F)cc1Cl)c1ccccc1 [Example 457, 4-(5-chloro-6-((1S)-1-phenylethoxy)-3-pyridinyl)-3-(difluoromethoxy)-N-(methylsulfonyl)benzamide]
46.1 nM | Cc1cc(Oc2ncc(-c3ccc(C(=O)NS(C)(=O)=O)cc3OC3COC3)cc2Cl)ccc1Cl [Example 413, 4-(5-chloro-6-(4-chloro-3-methylphenoxy)-3-pyridinyl)-N-(methylsulfonyl)-3-(3-oxetanyloxy)benzamide]
108 nM | Cc1cccc(Oc2ncc(-c3cc(F)c(C(=O)NS(C)(=O)=O)cc3C)cc2Cl)c1 [Example 621, 4-(5-chloro-6-(3-methylphenoxy)-3-pyridinyl)-2-fluoro-5-methyl-N-(methylsulfonyl)benzamide]
38.6 nM | Cc1ccc(Cl)c(Oc2ncc(-c3ccc(C(=O)NS(C)(=O)=O)cc3OC3COC3)cc2Cl)c1 [Example 423, 4-(5-chloro-6-(2-chloro-5-methylphenoxy)-3-pyridinyl)-N-(methylsulfonyl)-3-(3-oxetanyloxy)benzamide]
98 nM | CS(=O)(=O)NC(=O)c1ccc(-c2cnc(Oc3cccc4ccccc34)c(Cl)c2)c(OC2COC2)c1 [Example 419, 4-(5-chloro-6-(1-naphthalenyloxy)-3-pyridinyl)-N-(methylsulfonyl)-3-(3-oxetanyloxy)benzamide]
91.5 nM | COc1cc(C(=O)NS(C)(=O)=O)ccc1-c1cnc(Oc2ccc(C)cc2Cl)c(Cl)c1 [Example 344, 4-(5-chloro-6-(2-chloro-4-methylphenoxy)-3-pyridinyl)-3-methoxy-N-(methylsulfonyl)benzamide]

Second part, the compound before the results:

SMILES | IC50
Cc1cc(C(=O)NS(C)(=O)=O)c(F)cc1-c1cnc(Oc2ccc(F)cc2C(F)(F)F)c(Cl)c1 [Example 678, 4-(5-chloro-6-(4-fluoro-2-(trifluoromethyl)phenoxy)-3-pyridinyl)-2-fluoro-5-methyl-N-(methylsulfonyl)benzamide] | 74.4 nM
CC[C@@H](Oc1ncc(-c2cc(F)c(C(=O)NS(C)(=O)=O)cc2C)cc1Cl)c1ccc(C)cc1 [Example 685, 4-(5-chloro-6-(((1R)-1-(4-methylphenyl)propyl)oxy)-3-pyridinyl)-2-fluoro-5-methyl-N-(methylsulfonyl)benzamide, 4-(5-chloro-6-(((1S)-1-(4-methylphenyl)propyl)oxy)-3-pyridinyl)-2-fluoro-5-methyl-N-(methylsulfonyl)benzamide] | 88.1 nM
CCC(CC)Oc1ncc(-c2cc(F)c(C(=O)NS(C)(=O)=O)cc2Cl)cc1Cl [Example 601, 5-chloro-4-(5-chloro-6-(1-ethylpropoxy)-3-pyridinyl)-2-fluoro-N-(methylsulfonyl)benzamide] | 75.4 nM
Cc1cc(C(=O)NS(C)(=O)=O)c(F)cc1-c1cnc(OC(C(F)(F)F)C(F)(F)F)c(Cl)c1 [Example 686, 4-(5-chloro-6-(2,2,2-trifluoro-1-(trifluoromethyl)ethoxy)-3-pyridinyl)-2-fluoro-5-methyl-N-(methylsulfonyl)benzamide] | 115 nM
CC[C@H](Oc1ncc(-c2cc(F)c(C(=O)NS(C)(=O)=O)cc2C)cc1Cl)c1cccc(Cl)c1 [Example 676, 4-(5-chloro-6-(((1S)-1-(3-chlorophenyl)propyl)oxy)-3-pyridinyl)-2-fluoro-5-methyl-N-(methylsulfonyl)benzamide] | 58.6 nM
COc1cc(C(=O)NS(C)(=O)=O)ccc1-c1cnc(Oc2ccc(Cl)cc2Cl)c(C#N)c1 [Example 691, 4-(5-cyano-6-(2,4-dichlorophenoxy)-3-pyridinyl)-3-methoxy-N-(methylsulfonyl)benzamide] | 83.8 nM
Cc1ccc(Cl)cc1Oc1ncc(-c2cc(F)c(C(=O)NS(C)(=O)=O)cc2F)cc1Cl [Example 571, 4-(5-chloro-6-(5-chloro-2-methylphenoxy)-3-pyridinyl)-2,5-difluoro-N-(methylsulfonyl)benzamide] | 99.2 nM
COc1cc(C(=O)NS(C)(=O)=O)ccc1-c1cnc(Oc2cc(Cl)ccc2Cl)c(Cl)c1 [Example 582, 4-(5-chloro-6-(2,5-dichlorophenoxy)-3-pyridinyl)-3-methoxy-N-(methylsulfonyl)benzamide] | 61.4 nM

Same assay, conditions: in-vitro Nav 1.7 PX data

IC50 | SMILES
94.7 nM | CCOc1cc(C(=O)NS(C)(=O)=O)c(F)cc1-c1cnc(Oc2cccc(Cl)c2C)c(Cl)c1 [Example 779, 4-(5-chloro-6-(3-chloro-2-methylphenoxy)-3-pyridinyl)-5-ethoxy-2-fluoro-N-(methylsulfonyl)benzamide]
4020 nM | Cc1cc(C(=O)NS(C)(=O)=O)c(F)cc1-c1ccc(OCC(F)(F)F)cc1 [Example 810, 5-fluoro-2-methyl-N-(methylsulfonyl)-4′-(2,2,2-trifluoroethoxy)-4-biphenylcarboxamide]
151 nM | COc1cc(C(=O)NS(C)(=O)=O)ccc1-c1cnc(Oc2cc(Cl)cc(Cl)c2)c(C=O)c1 [Example 822, 4-(6-(3,5-Dichlorophenoxy)-5-Formylpyridin-3-yl)-3-Methoxy-N-(Methylsulfonyl)Benzamide]
91.7 nM | COc1cc(Oc2ncc(-c3cc(F)c(C(=O)NS(C)(=O)=O)cc3OC)cc2Cl)c(Cl)cc1Cl [Example 716, 4-(5-chloro-6-(2,4-dichloro-5-methoxyphenoxy)-3-pyridinyl)-2-fluoro-5-methoxy-N-(methylsulfonyl)benzamide]
69.5 nM | COc1cc(C(=O)NS(C)(=O)=O)c(F)cc1-c1cnc(Sc2cc(C)cc(C)c2)c(Cl)c1 [Example 729, 4-(5-chloro-6-((3,5-dimethylphenyl)sulfanyl)-3-pyridinyl)-2-fluoro-5-methoxy-N-(methylsulfonyl)benzamide]
62.8 nM | COc1cc(C(=O)NS(C)(=O)=O)c(F)cc1-c1cnc(Oc2ccc(C)c(F)c2F)c(Cl)c1 [Example 746, 4-(5-chloro-6-(2,3-difluoro-4-methylphenoxy)-3-pyridinyl)-2-fluoro-5-methoxy-N-(methylsulfonyl)benzamide]
77.6 nM | COc1cc(C(=O)NS(C)(=O)=O)c(F)cc1-c1cnc(O[C@@H](C)C2CCC2)c(Cl)c1 (single isomer, unassigned) [Example 767]
47.1 nM | COc1cc(C(=O)NS(C)(=O)=O)c(F)cc1-c1cnc(Oc2cc(F)c(Cl)c(F)c2)c(Cl)c1 [Example 763, 4-(5-chloro-6-(4-chloro-3,5-difluorophenoxy)-3-pyridinyl)-2-fluoro-5-methoxy-N-(methylsulfonyl)benzamide]
57.1 nM | Cc1cc(C(=O)NS(=O)(=O)c2nccs2)c(F)cc1-c1cnc(OC2CCC2)c(Cl)c1 [Example 795, 4-(5-chloro-6-(cyclobutyloxy)-3-pyridinyl)-2-fluoro-5-methyl-N-(1,3-thiazol-2-ylsulfonyl)benzamide]
72.1 nM | CC(C)C1CCCN1c1ncc(-c2ccc(C(=O)NS(C)(=O)=O)cc2OC(F)F)cc1Cl (racemic) [compound 833, 4-(5-Chloro-6-(2-Isopropylpyrrolidin-1-yl)Pyridin-3-yl)-3-(Difluoromethoxy)-N-(Methylsulfonyl)Benzamide]
98.8 nM | COc1cc(C(=O)NS(C)(=O)=O)c(F)cc1-c1cnc(Oc2cc3ccccc3cc2Cl)c(Cl)c1 [Example 715, 4-(5-chloro-6-((3-chloro-2-naphthalenyl)oxy)-3-pyridinyl)-2-fluoro-5-methoxy-N-(methylsulfonyl)benzamide]

Further lines, the compound ahead of its results:

SMILES | IC50
COc1cc(C(=O)NS(C)(=O)=O)c(F)cc1-c1cnc(O[C@H]2C[C@H](C)C2)c(Cl)c1 [Example 735, 4-(5-chloro-6-((trans-3-methylcyclobutyl)oxy)-3-pyridinyl)-2-fluoro-5-methoxy-N-(methylsulfonyl)benzamide] | 59.1 nM
COc1cc(C(=O)NS(C)(=O)=O)c(F)cc1-c1cnc(OC(C)C2CCC2)c(Cl)c1 (centres unmarked) [Example 719, 4-(5-Chloro-6-(1-Cyclobutylethoxy)Pyridin-3-yl)-2-Fluoro-5-Methoxy-N-(Methylsulfonyl)Benzamide] | 89 nM
COc1cc(C(=O)NS(C)(=O)=O)c(F)cc1-c1cnc(OCC2C(C)(C)C2(C)C)c(Cl)c1 [Example 718, 4-(5-chloro-6-((2,2,3,3-tetramethylcyclopropyl)methoxy)-3-pyridinyl)-2-fluoro-5-methoxy-N-(methylsulfonyl)benzamide] | 145 nM
COc1cc(C(=O)NS(C)(=O)=O)c(F)cc1-c1cnc(Oc2ccc(Cl)c(Cl)c2)c(Cl)c1 [Example 755, 4-(5-chloro-6-(3,4-dichlorophenoxy)-3-pyridinyl)-2-fluoro-5-methoxy-N-(methylsulfonyl)benzamide] | 51.5 nM
COc1cc(C(=O)NS(C)(=O)=O)ccc1-c1cnc(Oc2ccc(C)c(Cl)c2)c(C#N)c1 [Example 829, 4-(6-(3-chloro-4-methylphenoxy)-5-cyano-3-pyridinyl)-3-methoxy-N-(methylsulfonyl)benzamide] | 50.5 nM
COc1cc(C(=O)NS(C)(=O)=O)c(F)cc1-c1cnc(Oc2cc(Cl)c(Cl)cc2Cl)c(Cl)c1 [Example 739, 4-(5-chloro-6-(2,4,5-trichlorophenoxy)-3-pyridinyl)-2-fluoro-5-methoxy-N-(methylsulfonyl)benzamide] | 51 nM
COc1cccc(CSc2ncc(-c3cc(F)c(C(=O)NS(C)(=O)=O)cc3C)cc2Cl)c1 [Example 818, 4-(5-Chloro-6-((3-Methoxybenzyl)Thio)-Pyridin-3-yl)-2-Fluoro-5-Methyl-N-(Methylsulfonyl)Benzamide] | 169 nM
